# A melting point compilation (Tetko et al.; mined from patent text by program, amines drawn as free bases though some values may be those of a salt)
# Starred links: 1 amine or outer side, 2 acyl side, 3 side chain; linkers in the order of their positions; H or OH if unused. Residues, ends and D or L forms follow the SMILES beside them. *: point of attachment. 4Abz = Nc1ccc(C(=O)O)cc1; CO = O=C([*:1])[*:2]; CF3 = FC(F)(F)*
row,Compound,melting point
1,CSC(N)=C(C#N)C#N,228 to 229 °C
2,O=C(NCc1ccccc1)Nc1nnc(C(=O)OCc2ccccc2)s1,188 to 192 °C
3,CN(C)c1cccc(-c2ccc3c(C(N)=O)nn(-c4ccc(S(N)(=O)=O)cc4)c3c2)c1,237 to 238 °C
4,CCN(C)C(=O)Nc1ccc2c(c1Cl)C(c1ccccc1F)=NCC(=O)N2C,184 to 186 °C
5,N#Cc1ccc(NC(=O)NC(=O)c2c(F)cccc2F)c(Cl)c1Cl,285 to 287 °C
6,O=Cc1[nH]cc2c1CN=C(c1ccccc1Cl)c1cc(Cl)ccc1-2,270 to 274 °C
7,Clc1ccc(Cn2cnc3c(-c4ccco4)ncnc32)cc1,156 to 159 °C
8,Cc1ccc(C(=O)n2c(C)c(CC(=O)O)c3cc4c(cc32)OCCO4)cc1,162 to 163 °C
9,Cc1ccc2cc(NC(=O)c3cccc(SCc4cc(Nc5ccccc5)n[nH]4)c3)ccc2n1,172 to 174 °C
10,CCCCOc1c(CNC(=O)OC(C)(C)C)n(CC(C)C)c(=O)c2ccc(NC(=O)OCC3c4ccccc4-c4ccccc43)cc12,137 to 138 °C
11,COC(=O)CN1CCN2C(Cc3cc(OC)c(OC)cc3C2c2ccccc2)C1 (stereo unspecified),110 to 113 °C
12,O=C(N=c1ccn(-c2ccccc2)nc1)c1ccccc1,175 to 176 °C
13,CS(=O)(=O)Nc1ccc(F)c(C(=O)CBr)c1,110 to 113 °C
14,OCCCc1cccc(OCc2coc(/C=C/c3ccccc3)n2)c1,57 to 58 °C
15,CN(CCCNc1ncc(Cc2ccc(Cl)cc2)c(=O)[nH]1)c1ccccn1,65 °C
16,COc1ccc(CN(C)CCc2ccc(NC(=O)c3cccc4c(=O)c5cccc(SC)c5[nH]c34)cc2)cc1OC,190 °C
17,COC(=O)c1cscc1O,40 to 43 °C
18,CCN1c2ncccc2C(=O)N(C)c2ccc(-c3c[nH]c(C(=O)O)c3)nc21,256 to 257 °C
19,NS(=O)(=O)c1ccc(N2CC(=O)N(c3ccccc3)C2=O)cc1,255 to 257 °C
20,C=CCNc1nc(NC(C)C)nc2ccc([N+](=O)[O-])cc12,150 to 151 °C
21,CCOC(=O)CCCOc1ccc([N+](=O)[O-])c(C=C2NC(=O)NC2=O)c1,131 to 134 °C
22,COC(=O)c1cc(NC(C)=O)c(F)c(-c2ccc(Cl)c(OC)c2F)n1,189 to 191 °C
23,O=C(O)c1cccc(-c2ccc3c(c2)N(c2cc(Cl)cc(Cl)c2)CC3)c1,210 to 211 °C
24,COC(=O)CCCc1cc2cc(Cl)ccc2n1S(=O)(=O)c1ccc(C(C)C)cc1,95 to 97 °C
25,CCOP(=O)(OCC)C(C)Oc1cc(-n2c(=O)cc(C(F)(F)F)n(C)c2=O)c(F)cc1Cl (stereo unspecified),103 °C
26,COC1=C(OC)C(=O)c2c(cccc2S(=O)(=O)c2ccccc2)C1=O,141 to 142 °C
27,O=C1N(CC2CCOCC2)c2ccccc2C12COc1cc3c(cc12)OCCO3 (stereo unspecified),129 to 131 °C

row,Compound,melting point
1,O=c1ccsc2c1[nH]c1ccc(Br)cc12,334 to 337 °C
2,Cc1ccc(-c2cc(F)c(F)cc2-c2ccc(S(C)(=O)=O)cc2)cc1,147 to 148 °C
3,CC(C)C(NC(=O)Nc1ccc(C(=O)NCC(=O)O)cc1)C(=O)N1CCCC1C(=O)NC(C(=O)C(F)(F)F)C(C)C (stereo not drawn) ({Gly-4Abz-CO}-Val-Pro-Val-CF3; configuration not given here),98 to 128 °C
4,COc1ccc(C(=NN)Nc2ccc([N+](=O)[O-])cc2)cc1,104 °C
5,COC(=O)CCc1cc(C(C)(C)C)c(OP(Cl)c2ccccc2)c(C(C)(C)C)c1 (stereo unspecified),86 to 88 °C
6,CCOC(=O)/C=C/C=C/c1ccc(OCc2ccccc2)c(OC)c1,85 to 86 °C
7,COC(=O)C1=C(C)NC(C)=C(P2(=O)OCCCO2)C1c1ccccc1[N+](=O)[O-] (stereo unspecified),249 to 251 °C
8,O=[N+]([O-])c1cc2c(Cl)ncnc2cc1F,116 to 118 °C
9,C[C@@H](Nc1c(NCc2ccc(Cl)cc2Cl)c(=O)c1=O)C(C)(C)C,235 to 239 °C
10,CS(=O)(=O)c1ccc(-c2cc3c(cc2Cc2cc(F)cc(F)c2)OCCO3)cc1,160 to 162 °C
11,COC(=O)c1ccc(-c2ccc3cc(C(=O)OCc4ccccc4)c(C45CC6CC(CC(C6)C4)C5)cc3c2)cc1,143 to 144 °C
12,CC1(C)CC(=O)c2c(SCCO)sc(-c3cc[nH]n3)c2C1,182 to 185 °C
13,CCCCn1c(=Nc2ccccc2)sc2ncccc2c1=O,68 to 69 °C
14,O=Cc1cccn1-c1ncccc1[N+](=O)[O-],122 to 125 °C
15,Nc1c(-c2ccc(Br)cc2)nc2ccc(Cl)cc2c1C(=O)O,241 to 242 °C
16,CC(=O)Oc1c(C=C(C#N)C#N)n(C(C)=O)c2ccccc12,250 to 252 °C
17,O=[N+]([O-])c1cn2c(n1)O[C@@H](COc1ccc(N3CCC(Cc4ccc(OC(F)(F)F)cc4)CC3)cc1)C2,160 to 164 °C
18,Cc1oc(C(C)C)cc1C(=O)O,88.5 °C
19,Cc1nc(C)c(-c2ccnc(Nc3ccc(C)c(S(=O)(=O)N4CCOCC4)c3)n2)s1,81 to 83 °C
20,COC1CCC2C3CCC4CC(=O)C(C)(C)CC4(C)C3CCC12C (stereo unspecified),116 to 120 °C
21,Cc1c(Cl)cc(C(=O)C(O)CC(=O)O)cc1Cl (stereo unspecified),114 to 118 °C
22,O=[N+]([O-])c1cccc(S(=O)(=O)C(CCl)Sc2ccccc2)c1 (stereo unspecified),126 °C
23,CCN(Cc1cc(Cl)ccc1OCC1CC1)c1ccc(C(=O)O)nn1,119 to 120 °C
24,COc1ccc(CCNc2nc(O)c(C(=O)c3ccco3)c(O)n2)cc1OC,> 250 °C
25,O=C(CCc1ccccc1Cl)Nc1c(Cl)ccc2nc(N3CC[C@H](NCCO)C3)ccc12,180 to 182 °C
26,CCOCc1nc2c(N)nc3ccccc3c2n1CC1(NC(=O)NC(C)C)CCCCC1,135 to 160 °C
27,Fc1ccc(-c2ccc(-c3cc(N4CCNCC4)nnc3C(F)(F)F)cc2)cc1,162 °C

# More lines, now with the values ahead:
row,melting point,Compound
1,115 to 122 °C,CC(C)(C)NC(=O)[C@@H]1C[C@H](Cl)CN1C(=O)[C@@H](O)[C@H](Cc1ccccc1)NC(=O)[C@H](CCS(N)(=O)=O)NC(=O)OCc1ccccc1
2,129 to 130 °C,COc1ccc2c(c1)CCc1c(C#N)cccc1S2
3,200 to 201 °C,CCCCC(CC)C(=O)Nc1ccc2c(/C=C/C(=O)O)cn(Cc3ccc(C(=O)NS(=O)(=O)c4ccccc4)cc3OC)c2c1 (stereo unspecified)
4,194 to 195 °C,C=Cc1cnc2c(NC(=O)c3c(Cl)cccc3Cl)cccc2c1CC(=O)NCc1ccccn1
5,186 to 190 °C,NC(=O)c1c(Cl)c(-c2ccccc2)n2c1CN(S(=O)(=O)c1ccc(-c3ccon3)s1)CC2
6,218 to 220 °C,N#CC(N)=C(C#N)N=Cc1nn(-c2c(Cl)cc(C(F)(F)F)cc2Cl)nc1C(F)(F)F
7,109 to 110 °C,CC(=O)c1ccc(C=C(C)c2ccc3c(c2)C(C)(C)CCO3)cc1
8,200 to 220 °C,CC(=O)NCCn1c(O)nc2ccc(Cl)nc21
9,25 to 27 °C,CCCCCCCCCCCCCCCCSCC(C)(CO)C(=O)OC (stereo unspecified)
10,190 to 192 °C,N#Cc1cccc(-n2ncc(C(=O)O)c2C#N)c1
11,220 °C,O=C(ONC1CCCCC1)c1n[nH]c2c(=O)[nH]c3cc(Cl)ccc3c(=O)c12
12,288 to 290 °C,Oc1ccc(-c2cccnc2)cc1O
13,180 to 182 °C,Cc1ncc2c(c1-c1nnn[nH]1)COc1ccccc1C2=O
14,42 to 43 °C,CC1Cc2cccc(Cl)c2C1=O (stereo unspecified)
15,102 to 104 °C,CCOC(=O)c1cnn(-c2cccc(S(=O)(=O)N(C)C)n2)c1S(N)(=O)=O
16,150 °C,CCOC(=O)c1cncc(O)c1
17,192 °C,COc1cc(C)nc(NC(=O)NS(=O)(=O)c2ccc(N=[N+]=[N-])cc2)n1
18,166 to 168 °C,CCOC(=O)c1c2n(c3cc(F)c(F)cc3c1=O)CCCC2
19,69 to 74 °C,CC(C)CCC(O)C(CC1CCCCC1)NC(=O)C(Cc1c[nH]cn1)N(C)C(=O)C(Cc1ccccc1)OC(=O)N(C)CCN(C)C(=O)N1CCOCC1 (stereo unspecified)
20,132 to 133 °C,Cc1cccc(Cn2cc(-c3cn(C4CC(O)C(CO)O4)c(=O)[nH]c3=O)nn2)c1 (stereo unspecified)
21,166 to 167 °C,COC(=O)/C=C/C=C/c1ccc(OCc2nc(-c3ccccc3)oc2C)c(OC)c1

row,melting point,Compound
1,93 to 94 °C,COc1cc(C=CC=O)ccc1OC(C)C
2,270 °C,O=c1[nH]cc(-c2ccnc(Cl)c2)n1-c1ccc(F)cc1
3,162 to 164 °C,Nc1cc2c(Nc3ccc(F)c(Cl)c3)ncnc2cc1OCC1CCCO1 (stereo unspecified)
4,146 to 148 °C,O=c1ccc(Br)cn1CC1(O)CCN(Cc2ccccc2)CC1
5,151 to 158 °C,CC1(c2ccccc2)CN(C(=O)Nc2ccc(Cl)cc2)N=C1c1ccc(Cl)cc1 (stereo unspecified)
6,287 to 289 °C,CCC(CC)Sc1cc2c(cc1Cl)N=C(C(N)=O)NS2(=O)=O
7,105 to 107 °C,COC1=C(OC)C(=O)C2=C(CCC(CCOc3ccc(C#N)cc3)CC2)C1=O
8,216 °C,N#Cc1cc(C(=O)c2cccs2)ccc1O
9,232 to 237 °C,O=C(O)c1cn(-c2nnc(C(F)(F)F)s2)c2nc(Cl)c(F)cc2c1=O
10,93 to 95 °C,CC(C)(C)c1ccc(OCC(=O)O)cc1
11,148 to 149 °C,"CCOC(=O)C1=C(C)Nc2snc(CCN3CCN(c4ccccc4)CC3)c2C1c1cccc([N+](=O)[O-])c1 (single isomer, unassigned; (+))"
12,> 300 °C,COc1ccc2c(c1)c(=O)n1nc(C(N)=O)cc1n2C
13,218 to 219 °C,CC1COCc2nc3c(N)nc4ccc(OC(=O)N5CCCC5)cc4c3n21 (stereo unspecified)
14,71 to 72 °C,CON(C)C(=O)C(CO[Si](C)(C)C(C)(C)C)NC(=O)OC(C)(C)C (stereo unspecified)
15,86 °C,CCCCCCCCCOc1ccc(-c2ccc(C3CCC(C#N)(CCCCCCCCC)CC3)cc2)cc1 (stereo unspecified)
16,160 to 162 °C,O=C(NC1CCN(CCc2cccc3ccccc23)CC1)c1ccccc1
17,190 to 192 °C,Cc1nc2ccc(Cl)cc2c(=O)n1CCCn1ccnc1
18,265 °C,O=C(Nc1nc(C(F)(F)F)co1)C1c2ccc(F)cc2Oc2cc(F)ccc21
19,141 to 142 °C,CN(C)N(C)C(=O)NC1c2ccccc2Oc2ccccc21
20,86 to 87 °C,CCOc1cc(C(CC(=O)OC)N2C(=O)c3ccccc3C2=O)ccc1OC (stereo unspecified)
21,116 to 118 °C,Nc1sc2c(c1C(=O)c1cccs1)CCC(Cc1ccccc1)C2 (stereo unspecified)
